Test system: rodent lifetime carcinogenesis bioassay, tumor incidence TD50
Experiment: chronic cancer bioassays in animals – CPDB, compiled studies (AID 1745844)
Details: by gavage

In the case of `CC(C)=CCl`, the TD50 (mouse, strain B6C3F1, females, site: Harderian gland, lesion: papillary adenoma, dosed 102 weeks, study length 103 weeks) is reported as 146 mg/kg/day, the TD50 (mouse, strain B6C3F1, females, site: any site (literature study), lesion: several types, types named in the paper, dosed 102 weeks, study length 103 weeks) is reported as 14.6 mg/kg/day and the TD50 (mouse, strain B6C3F1, females, site: forestomach, lesion: adenosquamous carcinoma + carcinoma, NOS + squamous-cell carcinoma + squamous-cell papilloma, dosed 102 weeks, study length 103 weeks) is reported as 14.3 mg/kg/day. The TD50 (mouse, strain B6C3F1, females, site: forestomach, lesion: adenosquamous carcinoma + carcinoma, NOS + squamous-cell carcinoma, dosed 102 weeks, study length 103 weeks) was 14.3 mg/kg/day, the TD50 (mouse, strain B6C3F1, females, site: forestomach, lesion: squamous-cell carcinoma + squamous-cell papilloma, dosed 102 weeks, study length 103 weeks) was 14.4 mg/kg/day and the TD50 (mouse, strain B6C3F1, females, site: forestomach, lesion: squamous-cell carcinoma, dosed 102 weeks, study length 103 weeks) was 14.4 mg/kg/day. The TD50 (mouse, strain B6C3F1, females, site: forestomach, lesion: squamous-cell papilloma, dosed 102 weeks, study length 103 weeks) was 373 mg/kg/day, the TD50 (mouse, strain B6C3F1, females, site: jejunum + liver + multiple organs + spleen, lesion: malignant lymphoma, lymphocytic type + malignant lymphoma, mixed type + malignant lymphoma, histiocytic type, dosed 102 weeks, study length 103 weeks) was 124 mg/kg/day and the TD50 (mouse, strain B6C3F1, females, site: liver + multiple organs + spleen, lesion: malignant lymphoma, mixed type, dosed 102 weeks, study length 103 weeks) was 229 mg/kg/day. For the same molecule, the TD50 (mouse, strain B6C3F1, females, site: liver, lesion: hepatocellular adenoma + hepatocellular carcinoma + neoplastic nodule, dosed 102 weeks, study length 103 weeks) was 150 mg/kg/day, the TD50 (mouse, strain B6C3F1, females, site: liver, lesion: hepatocellular adenoma, dosed 102 weeks, study length 103 weeks) was 150 mg/kg/day and the TD50 (mouse, strain B6C3F1, females, site: lung, lesion: alveolar/bronchiolar adenoma + alveolar/bronchiolar carcinoma, dosed 102 weeks, study length 103 weeks) was 186 mg/kg/day. For the same molecule, the TD50 (mouse, strain B6C3F1, females, site: lung, lesion: alveolar/bronchiolar adenoma, dosed 102 weeks, study length 103 weeks) was 235 mg/kg/day, the TD50 (mouse, strain B6C3F1, males, site: Harderian gland, lesion: papillary adenoma, dosed 102 weeks, study length 103 weeks) was 149 mg/kg/day and the TD50 (mouse, strain B6C3F1, males, site: any site (literature study), lesion: several types, types named in the paper, dosed 102 weeks, study length 103 weeks) was 13.9 mg/kg/day. It also gave a TD50 (mouse, strain B6C3F1, males, site: duodenum + lymph node + multiple organs + spleen, lesion: malignant lymphoma, mixed type + malignant lymphoma, NOS + granulocytic leukemia + malignant lymphoma, histiocytic type + malign, dosed 102 weeks, study length 103 weeks) of 148 mg/kg/day, a TD50 (mouse, strain B6C3F1, males, site: duodenum + lymph node + multiple organs + spleen, lesion: malignant lymphoma, mixed type + malignant lymphoma, NOS + malignant lymphoma, histiocytic type + malignant lymphoma, lymphocy, dosed 102 weeks, study length 103 weeks) of 154 mg/kg/day and a TD50 (mouse, strain B6C3F1, males, site: forestomach + preputial gland, lesion: squamous-cell carcinoma + squamous-cell papilloma, dosed 102 weeks, study length 103 weeks) of 15.2 mg/kg/day. The TD50 (mouse, strain B6C3F1, males, site: forestomach, lesion: squamous-cell carcinoma + squamous-cell papilloma, dosed 102 weeks, study length 103 weeks) was 15.5 mg/kg/day, the TD50 (mouse, strain B6C3F1, males, site: forestomach, lesion: squamous-cell carcinoma, dosed 102 weeks, study length 103 weeks) was 17.2 mg/kg/day and the TD50 (mouse, strain B6C3F1, males, site: forestomach, lesion: squamous-cell papilloma, dosed 102 weeks, study length 103 weeks) was 195 mg/kg/day. It also gave a TD50 (mouse, strain B6C3F1, males, site: liver + mesenteric lymph node + preputial gland + spleen, lesion: hemangioma + hemangiosarcoma, dosed 102 weeks, study length 103 weeks) of 221 mg/kg/day, a TD50 (mouse, strain B6C3F1, males, site: liver + spleen, lesion: hemangiosarcoma, dosed 102 weeks, study length 103 weeks) of 375 mg/kg/day and a TD50 (mouse, strain B6C3F1, males, site: liver, lesion: hepatocellular adenoma + hepatocellular carcinoma + neoplastic nodule, dosed 102 weeks, study length 103 weeks) of 48.8 mg/kg/day. For the same molecule, the TD50 (mouse, strain B6C3F1, males, site: liver, lesion: hepatocellular adenoma + hepatocellular carcinoma, dosed 102 weeks, study length 103 weeks) was 48.8 mg/kg/day, the TD50 (mouse, strain B6C3F1, males, site: liver, lesion: hepatocellular adenoma, dosed 102 weeks, study length 103 weeks) was 87.1 mg/kg/day and the TD50 (mouse, strain B6C3F1, males, site: liver, lesion: hepatocellular carcinoma, dosed 102 weeks, study length 103 weeks) was 104 mg/kg/day. For the same molecule, the TD50 (mouse, strain B6C3F1, males, site: lung, lesion: alveolar/bronchiolar adenoma + alveolar/bronchiolar carcinoma, dosed 102 weeks, study length 103 weeks) was 87.7 mg/kg/day, the TD50 (mouse, strain B6C3F1, males, site: lung, lesion: alveolar/bronchiolar adenoma, dosed 102 weeks, study length 103 weeks) was 117 mg/kg/day and the TD50 (mouse, strain B6C3F1, males, site: lung, lesion: alveolar/bronchiolar carcinoma, dosed 102 weeks, study length 103 weeks) was 199 mg/kg/day. For the same molecule, the TD50 (mouse, strain B6C3F1, males, site: preputial gland, lesion: squamous-cell carcinoma, dosed 102 weeks, study length 103 weeks) was 90.7 mg/kg/day, the TD50 (rat, strain Fischer 344, females, site: any site (literature study), lesion: several types, types named in the paper, dosed 100 weeks, study length 104 weeks) was 11.9 mg/kg/day and the TD50 (rat, strain Fischer 344, females, site: esophagus + forestomach + gingiva + nasal cavity + oral mucosa + palate + tongue, lesion: squamous-cell carcinoma + squamous-cell papilloma + adenocarcinoma + adenoma, NOS + carcinoma, NOS, dosed 100 weeks, study length 104 weeks) was 25.3 mg/kg/day. For the same molecule, the TD50 (rat, strain Fischer 344, females, site: esophagus, lesion: squamous-cell carcinoma, dosed 100 weeks, study length 104 weeks) was 250 mg/kg/day, the TD50 (rat, strain Fischer 344, females, site: forestomach, lesion: squamous-cell carcinoma + squamous-cell papilloma, dosed 100 weeks, study length 104 weeks) was 95.2 mg/kg/day and the TD50 (rat, strain Fischer 344, females, site: forestomach, lesion: squamous-cell carcinoma, dosed 100 weeks, study length 104 weeks) was 191 mg/kg/day. It also gave a TD50 (rat, strain Fischer 344, females, site: forestomach, lesion: squamous-cell papilloma, dosed 100 weeks, study length 104 weeks) of 209 mg/kg/day, a TD50 (rat, strain Fischer 344, females, site: gingiva + oral mucosa + palate + tongue, lesion: squamous-cell carcinoma + squamous-cell papilloma, dosed 100 weeks, study length 104 weeks) of 318 mg/kg/day and a TD50 (rat, strain Fischer 344, females, site: lung, lesion: alveolar/bronchiolar adenoma + alveolar/bronchiolar carcinoma, dosed 100 weeks, study length 104 weeks) of 218 mg/kg/day. It also gave a TD50 (rat, strain Fischer 344, females, site: mammary gland, lesion: adenocarcinoma + fibroadenoma, dosed 100 weeks, study length 104 weeks) of 36.7 mg/kg/day, a TD50 (rat, strain Fischer 344, females, site: mammary gland, lesion: fibroadenoma, dosed 100 weeks, study length 104 weeks) of 38.3 mg/kg/day and a TD50 (rat, strain Fischer 344, females, site: multiple organs, lesion: lymphocytic leukemia + mononuclear-cell leukemia, dosed 100 weeks, study length 104 weeks) of 170 mg/kg/day. It also gave a TD50 (rat, strain Fischer 344, females, site: multiple organs, lesion: mononuclear-cell leukemia, dosed 100 weeks, study length 104 weeks) of 202 mg/kg/day, a TD50 (rat, strain Fischer 344, females, site: nasal cavity, lesion: adenocarcinoma + adenoma, NOS + carcinoma, NOS + squamous-cell carcinoma, dosed 100 weeks, study length 104 weeks) of 34.3 mg/kg/day and a TD50 (rat, strain Fischer 344, females, site: nasal cavity, lesion: adenocarcinoma + adenoma, NOS, dosed 100 weeks, study length 104 weeks) of 143 mg/kg/day. It also gave a TD50 (rat, strain Fischer 344, females, site: nasal cavity, lesion: adenocarcinoma + carcinoma, NOS + squamous-cell carcinoma, dosed 100 weeks, study length 104 weeks) of 35.2 mg/kg/day, a TD50 (rat, strain Fischer 344, females, site: nasal cavity, lesion: adenocarcinoma, dosed 100 weeks, study length 104 weeks) of 159 mg/kg/day and a TD50 (rat, strain Fischer 344, females, site: nasal cavity, lesion: carcinoma, NOS + squamous-cell carcinoma, dosed 100 weeks, study length 104 weeks) of 46.8 mg/kg/day. For the same molecule, the TD50 (rat, strain Fischer 344, females, site: nasal cavity, lesion: carcinoma, NOS, dosed 100 weeks, study length 104 weeks) was 52.7 mg/kg/day, the TD50 (rat, strain Fischer 344, females, site: oral mucosa + palate, lesion: squamous-cell papilloma, dosed 100 weeks, study length 104 weeks) was 1010 mg/kg/day and the TD50 (rat, strain Fischer 344, females, site: oral mucosa, lesion: squamous-cell papilloma, dosed 100 weeks, study length 104 weeks) was 1220 mg/kg/day. It also gave a TD50 (rat, strain Fischer 344, females, site: pituitary gland, anterior, lesion: adenoma, NOS + chromophobe adenoma + chromophobe carcinoma, dosed 100 weeks, study length 104 weeks) of 68 mg/kg/day, a TD50 (rat, strain Fischer 344, females, site: pituitary gland, anterior, lesion: adenoma, NOS + chromophobe adenoma, dosed 100 weeks, study length 104 weeks) of 101 mg/kg/day and a TD50 (rat, strain Fischer 344, females, site: pituitary gland, anterior, lesion: chromophobe adenoma + chromophobe carcinoma, dosed 100 weeks, study length 104 weeks) of 71.7 mg/kg/day. The TD50 (rat, strain Fischer 344, females, site: pituitary gland, anterior, lesion: chromophobe adenoma, dosed 100 weeks, study length 104 weeks) was 109 mg/kg/day, the TD50 (rat, strain Fischer 344, females, site: pituitary gland, anterior, lesion: chromophobe carcinoma, dosed 100 weeks, study length 104 weeks) was 222 mg/kg/day and the TD50 (rat, strain Fischer 344, females, site: thyroid gland, lesion: c-cell adenoma, dosed 100 weeks, study length 104 weeks) was 225 mg/kg/day. It also gave a TD50 (rat, strain Fischer 344, females, site: thyroid gland, lesion: follicular-cell adenoma + follicular-cell carcinoma, dosed 100 weeks, study length 104 weeks) of 131 mg/kg/day, a TD50 (rat, strain Fischer 344, females, site: thyroid gland, lesion: follicular-cell carcinoma, dosed 100 weeks, study length 104 weeks) of 136 mg/kg/day and a TD50 (rat, strain Fischer 344, females, site: uterus, lesion: endometrial stromal polyp + endometrial stromal sarcoma, dosed 100 weeks, study length 104 weeks) of 84.9 mg/kg/day. The TD50 (rat, strain Fischer 344, females, site: uterus, lesion: endometrial stromal polyp, dosed 100 weeks, study length 104 weeks) was 91.9 mg/kg/day, the TD50 (rat, strain Fischer 344, males, site: adrenal gland + adrenal medulla, lesion: pheochromocytoma, malignant + pheochromocytoma, dosed 94 weeks, study length 104 weeks) was 86.7 mg/kg/day and the TD50 (rat, strain Fischer 344, males, site: any site (literature study), lesion: several types, types named in the paper, dosed 94 weeks, study length 104 weeks) was 10.2 mg/kg/day. For the same molecule, the TD50 (rat, strain Fischer 344, males, site: esophagus + forestomach + lip + nasal cavity + palate + tongue, lesion: squamous-cell carcinoma + squamous-cell papilloma + adenocarcinoma + carcinoma, NOS, dosed 94 weeks, study length 104 weeks) was 17.5 mg/kg/day, the TD50 (rat, strain Fischer 344, males, site: esophagus, lesion: squamous-cell carcinoma + squamous-cell papilloma, dosed 94 weeks, study length 104 weeks) was 81.6 mg/kg/day and the TD50 (rat, strain Fischer 344, males, site: esophagus, lesion: squamous-cell carcinoma, dosed 94 weeks, study length 104 weeks) was 143 mg/kg/day. It also gave a TD50 (rat, strain Fischer 344, males, site: esophagus, lesion: squamous-cell papilloma, dosed 94 weeks, study length 104 weeks) of 218 mg/kg/day, a TD50 (rat, strain Fischer 344, males, site: forestomach, lesion: squamous-cell carcinoma + squamous-cell papilloma, dosed 94 weeks, study length 104 weeks) of 41.6 mg/kg/day and a TD50 (rat, strain Fischer 344, males, site: forestomach, lesion: squamous-cell carcinoma, dosed 94 weeks, study length 104 weeks) of 135 mg/kg/day. For the same molecule, the TD50 (rat, strain Fischer 344, males, site: forestomach, lesion: squamous-cell papilloma, dosed 94 weeks, study length 104 weeks) was 67.1 mg/kg/day, the TD50 (rat, strain Fischer 344, males, site: lip + palate + tongue, lesion: squamous-cell carcinoma + squamous-cell papilloma, dosed 94 weeks, study length 104 weeks) was 163 mg/kg/day and the TD50 (rat, strain Fischer 344, males, site: lip + palate + tongue, lesion: squamous-cell carcinoma, dosed 94 weeks, study length 104 weeks) was 178 mg/kg/day. It also gave a TD50 (rat, strain Fischer 344, males, site: liver, lesion: hepatocellular adenoma + hepatocellular carcinoma + neoplastic nodule, dosed 94 weeks, study length 104 weeks) of 1030 mg/kg/day, a TD50 (rat, strain Fischer 344, males, site: multiple organs, lesion: mononuclear-cell leukemia, dosed 94 weeks, study length 104 weeks) of 128 mg/kg/day and a TD50 (rat, strain Fischer 344, males, site: nasal cavity, lesion: adenocarcinoma + carcinoma, NOS + squamous-cell carcinoma, dosed 94 weeks, study length 104 weeks) of 29.7 mg/kg/day. It also gave a TD50 (rat, strain Fischer 344, males, site: nasal cavity, lesion: adenocarcinoma, NOS, dosed 94 weeks, study length 104 weeks) of 70.1 mg/kg/day, a TD50 (rat, strain Fischer 344, males, site: nasal cavity, lesion: carcinoma, NOS + squamous-cell carcinoma, dosed 94 weeks, study length 104 weeks) of 52.1 mg/kg/day and a TD50 (rat, strain Fischer 344, males, site: nasal cavity, lesion: carcinoma, NOS, dosed 94 weeks, study length 104 weeks) of 63.4 mg/kg/day. For the same molecule, the TD50 (rat, strain Fischer 344, males, site: nasal cavity, lesion: squamous-cell carcinoma, dosed 94 weeks, study length 104 weeks) was 297 mg/kg/day, the TD50 (rat, strain Fischer 344, males, site: testis, lesion: interstitial-cell tumor, dosed 94 weeks, study length 104 weeks) was 13.9 mg/kg/day and the TD50 (rat, strain Fischer 344, males, site: tongue, lesion: squamous-cell carcinoma + squamous-cell papilloma, dosed 94 weeks, study length 104 weeks) was 415 mg/kg/day. It also gave a TD50 (rat, strain Fischer 344, males, site: tongue, lesion: squamous-cell carcinoma, dosed 94 weeks, study length 104 weeks) of 469 mg/kg/day.

— PubChem BioAssay AID1745844 (Carcinogenic Potency Database (CPDB), 2022)
